# Columns and labels:
# MCF7 = assay: Growth inhibition of human MCF7 cells assessed as cell growth at 10 uM after 48 hrs by sulforhodamine B assay; format: functional; conditions: MCF7, 48 h, read-out: Activity
# HCT-116 = assay: Growth inhibition of human HCT116 cells after 48 hrs by sulforhodamine B assay; format: functional; conditions: HCT-116, 48 h
# HCT-15 [1] = assay: Growth inhibition of human HCT15 cells after 48 hrs by sulforhodamine B assay; format: functional; conditions: HCT-15, 48 h
# COLO 205 = assay: Growth inhibition of human COLO205 cells after 48 hrs by sulforhodamine B assay; format: functional; conditions: COLO 205, 48 h
# NCI-H226 [2] = assay: Growth inhibition of human NCI-H226 cells after 48 hrs by sulforhodamine B assay; format: functional; conditions: NCI-H226, 48 h
# HOP-62 = assay: Growth inhibition of human HOP62 cells after 48 hrs by sulforhodamine B assay; format: functional; conditions: HOP-62, 48 h
# HOP-92 [3] = assay: Growth inhibition of human HOP92 cells after 48 hrs by sulforhodamine B assay; format: functional, cell-based; conditions: HOP-92, 48 h
# SR = assay: Growth inhibition of human SR cells after 48 hrs by sulforhodamine B assay; format: functional
# [4] = Growth inhibition of human NCI-ADR-RES cells assessed as cell growth at 10 uM after 48 hrs by sulforhodamine B assay; format: functional; conditions: read-out: Activity
# OVCAR-4 [5] = assay: Growth inhibition of human OVCAR4 cells assessed as cell growth at 10 uM after 48 hrs by sulforhodamine B assay; format: functional; conditions: OVCAR-4, 48 h, read-out: Activity
# IGROV-1 = assay: Growth inhibition of human IGROV1 cells assessed as cell growth at 10 uM after 48 hrs by sulforhodamine B assay; format: functional; conditions: IGROV-1, 48 h, read-out: Activity
# MDA-MB-435 = assay: Growth inhibition of human MDA-MB-435 cells assessed as cell growth at 10 uM after 48 hrs by sulforhodamine B assay; format: functional; conditions: MDA-MB-435, 48 h, read-out: Activity
# Malme-3M [6] = assay: Growth inhibition of human MALME-3M cells assessed as cell growth at 10 uM after 48 hrs by sulforhodamine B assay; format: functional; conditions: read-out: Activity
# LOX IMVI [7] = assay: Growth inhibition of human LOXIMVI cells assessed as cell growth at 10 uM after 48 hrs by sulforhodamine B assay; format: functional; conditions: read-out: Activity
# SF-539 = assay: Growth inhibition of human SF539 cells assessed as cell growth at 10 uM after 48 hrs by sulforhodamine B assay; format: functional; conditions: SF-539, 48 h, read-out: Activity
# HT-29 = assay: Growth inhibition of human HT-29 cells assessed as cell growth at 10 uM after 48 hrs by sulforhodamine B assay; format: functional; conditions: HT-29, 48 h, read-out: Activity
# KM12 = assay: Growth inhibition of human KM12 cells assessed as cell growth at 10 uM after 48 hrs by sulforhodamine B assay; format: functional; conditions: KM12, 48 h, read-out: Activity
# HCT-15 [8] = assay: Growth inhibition of human HCT15 cells assessed as cell growth at 10 uM after 48 hrs by sulforhodamine B assay; format: functional; conditions: HCT-15, 48 h, read-out: Activity
# NCI-H322M = assay: Growth inhibition of human NCI-H322M cells assessed as cell growth at 10 uM after 48 hrs by sulforhodamine B assay; format: functional; conditions: read-out: Activity
# NCI-H226 [9] = assay: Growth inhibition of human NCI-H226 cells assessed as cell growth at 10 uM after 48 hrs by sulforhodamine B assay; format: functional; conditions: NCI-H226, 48 h, read-out: Activity
# HOP-92 [10] = assay: Growth inhibition of human HOP92 cells assessed as cell growth at 10 uM after 48 hrs by sulforhodamine B assay; format: functional; conditions: HOP-92, 48 h, read-out: Activity
# SN12C = assay: Growth inhibition of human SN12C cells after 48 hrs by sulforhodamine B assay; format: functional
# A498 = assay: Growth inhibition of human A498 cells after 48 hrs by sulforhodamine B assay; format: functional, cell-based; conditions: A498, 48 h
# ACHN = assay: Growth inhibition of human ACHN cells after 48 hrs by sulforhodamine B assay; format: functional
# OVCAR-8 = assay: Growth inhibition of human OVCAR8 cells after 48 hrs by sulforhodamine B assay; format: functional; conditions: OVCAR-8, 48 h
# OVCAR-4 [11] = assay: Growth inhibition of human OVCAR4 cells after 48 hrs by sulforhodamine B assay; format: functional; conditions: OVCAR-4, 48 h
# UACC-62 = assay: Growth inhibition of human UACC62 cells after 48 hrs by sulforhodamine B assay; format: functional; conditions: UACC-62, 48 h
# M14 = assay: Growth inhibition of human M14 cells after 48 hrs by sulforhodamine B assay; format: functional; conditions: M14, 48 h
# Malme-3M [12] = assay: Growth inhibition of human MALME-3M cells after 48 hrs by sulforhodamine B assay; format: functional
# LOX IMVI [13] = assay: Growth inhibition of human LOXIMVI cells after 48 hrs by sulforhodamine B assay; format: functional
# SNB-19 = assay: Growth inhibition of human SNB19 cells after 48 hrs by sulforhodamine B assay; format: functional; conditions: SNB-19, 48 h
# SF-268 = assay: Growth inhibition of human SF268 cells after 48 hrs by sulforhodamine B assay; format: functional; conditions: SF-268, 48 h
# A549 = assay: Growth inhibition of human A549/ATCC cells assessed as cell growth at 10 uM after 48 hrs by sulforhodamine B assay; format: functional; conditions: A549, 48 h, read-out: Activity
# MOLT-4 = assay: Growth inhibition of human MOLT4 cells assessed as cell growth at 10 uM after 48 hrs by sulforhodamine B assay; format: functional; conditions: MOLT-4, 48 h, read-out: Activity
# CCRF-CEM = assay: Growth inhibition of human CCRF-CEM cells assessed as cell growth at 10 uM after 48 hrs by sulforhodamine B assay; format: functional; conditions: read-out: Activity
# [14] = read-out: LC50 (the source's name)
structure (smiles),measurement,setting,value
COc1cc(-c2nn(-c3cccc(NC(=O)Nc4cc(C(F)(F)F)cc(C(F)(F)F)c4)c3)cc2-c2ccncc2)ccc1Cl,growth at 10 µM,MCF7,1.74%
same,GI50,HCT-116,0.643 µM
same,TGI,HCT-116,1.76 µM
same,CC50,HCT-116; [14],4.83 µM
same,GI50,HCT-15 [1],0.617 µM
same,LC50,HCT-15 [1],4.33 µM
same,TGI,HCT-15 [1],1.64 µM
same,GI50,COLO 205,0.847 µM
same,LC50 (concentration killing 50% of cells),COLO 205,2.91 µM
same,TGI,COLO 205,1.57 µM
same,GI50,NCI-H226 [2],1.36 µM
same,TGI,NCI-H226 [2],21.8 µM
same,CC50,NCI-H226 [2]; [14],> 50 µM
same,GI50,HOP-62,0.855 µM
same,TGI,HOP-62,1.59 µM
same,CC50,HOP-62; [14],2.95 µM
same,GI50,HOP-92 [3],0.144 µM
same,IC50,HOP-92 [3],0.14 µM
same,LC50,HOP-92 [3],4.72 µM
same,TGI,HOP-92 [3],1.15 µM
same,GI50,SR,1.08 µM
same,TGI,SR,3.97 µM
same,CC50,SR; [14],> 50 µM
same,growth at 10 µM,[4],1.11%
same,growth at 10 µM,OVCAR-4 [5],17.2%
same,growth at 10 µM,IGROV-1,19.9%
same,growth at 10 µM,MDA-MB-435,-58.3%
same,growth at 10 µM,Malme-3M [6],-10.7%
same,growth at 10 µM,LOX IMVI [7],-91.3%
same,growth at 10 µM,SF-539,-53.5%
same,growth at 10 µM,HT-29,-41.2%
same,growth at 10 µM,KM12,-14.8%
same,growth at 10 µM,HCT-15 [8],2.59%
same,growth at 10 µM,NCI-H322M,26.1%
same,growth at 10 µM,NCI-H226 [9],8.68%
same,growth at 10 µM,HOP-92 [10],-50.2%
same,GI50,SN12C,0.932 µM
same,TGI,SN12C,3.32 µM
same,CC50,SN12C; [14],> 50 µM
same,GI50,A498,0.612 µM
same,IC50,A498,0.61 µM
same,TGI,A498,1.9 µM
same,CC50,A498; [14],7.14 µM
same,GI50,ACHN,0.491 µM
same,TGI,ACHN,5.72 µM
same,CC50,ACHN; [14],> 50 µM
same,GI50,OVCAR-8,0.524 µM
same,TGI,OVCAR-8,3.98 µM
same,CC50,OVCAR-8; [14],> 50 µM
same,GI50,OVCAR-4 [11],1.12 µM
same,LC50 (concentration killing 50% of cells),OVCAR-4 [11],> 50 µM
same,TGI,OVCAR-4 [11],9.64 µM
same,GI50,UACC-62,0.661 µM
same,LC50 (50% lethal concentration),UACC-62,3.78 µM
same,TGI,UACC-62,1.58 µM
same,GI50,M14,0.808 µM
same,LC50 (concentration killing 50% of cells),M14,> 50 µM
same,TGI,M14,2.55 µM
same,GI50,Malme-3M [12],0.892 µM
same,LC50 (concentration killing 50% of starting cells),Malme-3M [12],7.68 µM
same,TGI,Malme-3M [12],2.17 µM
same,GI50,LOX IMVI [13],0.783 µM
same,LC50,LOX IMVI [13],2.94 µM
same,TGI,LOX IMVI [13],1.52 µM
same,GI50,SNB-19,0.711 µM
same,LC50 (concentration killing 50% of cells),SNB-19,> 50 µM
same,TGI,SNB-19,3.67 µM
same,GI50,SF-268,0.978 µM
same,TGI,SF-268,2.43 µM
same,CC50,SF-268; [14],> 50 µM
same,growth at 10 µM,A549,-23.8%
same,growth at 10 µM,MOLT-4,-24.5%
same,growth at 10 µM,CCRF-CEM,-27.3%

# — ChEMBL document CHEMBL2440076, “New triarylpyrazoles as broad-spectrum anticancer agents: design, synthesis, and biological evaluation” (Eur J Med Chem, 2013)
